# Laboratory results published in ChEMBL document CHEMBL3044830, “Synthesis, characterization, antibacterial, antifungal, and immunomodulating activities of gatifloxacin derivatives” (Med Chem Res, 2010).
# What was measured:
# Proteus mirabilis [1] = experiment: Antibacterial activity against Proteus mirabilis assessed as zone of inhibition at 5 to 40 ug/ml after 18 to 24 hr by disc diffusion method relative to gatifloxacin; format: functional
# Proteus mirabilis [2] = experiment: Antibacterial activity against Proteus mirabilis assessed as concentration required to obtain a zone of inhibition of 10 mm after 18 to 24 hr by disc diffusion method; format: functional
# Proteus mirabilis [3] = experiment: Antibacterial activity against Proteus mirabilis assessed as concentration required to obtain a zone of inhibition of 20 mm after 18 to 24 hr by disc diffusion method; format: functional
# Proteus mirabilis [4] = experiment: Antibacterial activity against Proteus mirabilis assessed as concentration required to obtain a zone of inhibition of 5 mm after 18 to 24 hr by disc diffusion method; format: functional
# Klebsiella pneumoniae [5] = experiment: Antibacterial activity against Klebsiella pneumoniae assessed as zone of inhibition at 5 to 40 ug/ml after 18 to 24 hr by disk diffusion method relative to gatifloxacin; format: functional
# Klebsiella pneumoniae [6] = experiment: Antibacterial activity against Klebsiella pneumoniae assessed as concentration required to obtain a zone of inhibition of 20 mm after 18 to 24 hr by disk diffusion method; format: functional
# Klebsiella pneumoniae [7] = experiment: Antibacterial activity against Klebsiella pneumoniae assessed as concentration required to obtain a zone of inhibition of 10 mm after 18 to 24 hr by disk diffusion method; format: functional
# Shigella flexneri [8] = experiment: Antibacterial activity against Shigella flexneri assessed as concentration required to obtain a zone of inhibition of 5 mm after 18 to 24 hr by disk diffusion method; format: functional
# Escherichia coli [9] = experiment: Antibacterial activity against Escherichia coli assessed as concentration required to obtain a zone of inhibition of 20 mm after 18 to 24 hr by disk diffusion method; format: functional
# Escherichia coli [10] = experiment: Antibacterial activity against Escherichia coli assessed as concentration required to obtain a zone of inhibition of 10 mm after 18 to 24 hr by disk diffusion method; format: functional
# Klebsiella pneumoniae [11] = experiment: Antibacterial activity against Klebsiella pneumoniae assessed as concentration required to obtain a zone of inhibition of 5 mm after 18 to 24 hr by disk diffusion method; format: functional
# Shigella flexneri [12] = experiment: Antibacterial activity against Shigella flexneri assessed as zone of inhibition at 5 to 40 ug/ml after 18 to 24 hr by disk diffusion method relative to gatifloxacin; format: functional
# Shigella flexneri [13] = experiment: Antibacterial activity against Shigella flexneri assessed as concentration required to obtain a zone of inhibition of 10 mm after 18 to 24 hr by disk diffusion method; format: functional
# Shigella flexneri [14] = experiment: Antibacterial activity against Shigella flexneri assessed as concentration required to obtain a zone of inhibition of 20 mm after 18 to 24 hr by disk diffusion method; format: functional
# Escherichia coli [15] = experiment: Antibacterial activity against Escherichia coli assessed as zone of inhibition at 5 to 40 ug/ml after 18 to 24 hr by disk diffusion method relative to gatifloxacin; format: functional
# Staphylococcus aureus [16] = experiment: Antibacterial activity against methicillin-resistant Staphylococcus aureus assessed as zone of inhibition at 5 to 40 ug/ml after 18 to 24 hr by disk diffusion method relative to gatifloxacin; format: functional
# Escherichia coli [17] = experiment: Antibacterial activity against Escherichia coli assessed as concentration required to obtain a zone of inhibition of 5 mm after 18 to 24 hr by disk diffusion method; format: functional
# Staphylococcus aureus [18] = experiment: Antibacterial activity against methicillin-resistant Staphylococcus aureus assessed as concentration required to obtain a zone of inhibition of 20 mm after 18 to 24 hr by disk diffusion method; format: functional
# Staphylococcus aureus [19] = experiment: Antibacterial activity against methicillin-resistant Staphylococcus aureus assessed as concentration required to obtain a zone of inhibition of 5 mm after 18 to 24 hr by disk diffusion method; format: functional
# Bacillus subtilis [20] = experiment: Antibacterial activity against Bacillus subtilis assessed as zone of inhibition at 5 to 40 ug/ml after 18 to 24 hr by disk diffusion method relative to gatifloxacin; format: functional
# Bacillus subtilis [21] = experiment: Antibacterial activity against Bacillus subtilis assessed as concentration required to obtain a zone of inhibition of 20 mm after 18 to 24 hr by disk diffusion method; format: functional
# Bacillus subtilis [22] = experiment: Antibacterial activity against Bacillus subtilis assessed as concentration required to obtain a zone of inhibition of 10 mm after 18 to 24 hr by disk diffusion method; format: functional
# Bacillus subtilis [23] = experiment: Antibacterial activity against Bacillus subtilis assessed as concentration required to obtain a zone of inhibition of 5 mm after 18 to 24 hr by disk diffusion method; format: functional
# Pseudomonas aeruginosa [24] = experiment: Antibacterial activity against Pseudomonas aeruginosa assessed as zone of inhibition at 5 to 40 ug/ml after 18 to 24 hr by disk diffusion method relative to gatifloxacin; format: functional
# Pseudomonas aeruginosa [25] = experiment: Antibacterial activity against Pseudomonas aeruginosa assessed as concentration required to obtain a zone of inhibition of 20 mm after 18 to 24 hr by disk diffusion method; format: functional
# Pseudomonas aeruginosa [26] = experiment: Antibacterial activity against Pseudomonas aeruginosa assessed as concentration required to obtain a zone of inhibition of 10 mm after 18 to 24 hr by disk diffusion method; format: functional
# Pseudomonas aeruginosa [27] = experiment: Antibacterial activity against Pseudomonas aeruginosa assessed as concentration required to obtain a zone of inhibition of 5 mm after 18 to 24 hr by disk diffusion method; format: functional
# Citrobacter [28] = experiment: Antibacterial activity against Citrobacter assessed as zone of inhibition at 5 to 40 ug/ml after 18 to 24 hr by disk diffusion method relative to gatifloxacin; format: functional
# Citrobacter [29] = experiment: Antibacterial activity against Citrobacter assessed as concentration required to obtain a zone of inhibition of 20 mm after 18 to 24 hr by disk diffusion method; format: functional
# Citrobacter [30] = experiment: Antibacterial activity against Citrobacter assessed as concentration required to obtain a zone of inhibition of 10 mm after 18 to 24 hr by disk diffusion method; format: functional
# Citrobacter [31] = experiment: Antibacterial activity against Citrobacter assessed as concentration required to obtain a zone of inhibition of 5 mm after 18 to 24 hr by disk diffusion method; format: functional
# Shigella sp. [32] = experiment: Antibacterial activity against Shigella typhi assessed as zone of inhibition after 18 to 24 hr by disc diffusion method relative to gatifloxacin; format: functional
# Shigella sp. [33] = experiment: Antibacterial activity against Shigella typhi assessed as concentration required to obtain a zone of inhibition of 10 mm after 18 to 24 hr by disc diffusion method; format: functional
# Shigella sp. [34] = experiment: Antibacterial activity against Shigella typhi assessed as concentration required to obtain a zone of inhibition of 5 mm after 18 to 24 hr by disc diffusion method; format: functional
# [35] = Antibacterial activity against Hofmanni bacterium assessed as zone of inhibition after 18 to 24 hr by disc diffusion method relative to gatifloxacin
# [36] = Antibacterial activity against Hofmanni bacterium assessed as concentration required to obtain a zone of inhibition of 5 mm after 18 to 24 hr by disc diffusion method
# [37] = Antibacterial activity against Hofmanni bacterium assessed as concentration required to obtain a zone of inhibition of 20 mm after 18 to 24 hr by disc diffusion method
# [38] = Antibacterial activity against Hofmanni bacterium assessed as concentration required to obtain a zone of inhibition of 10 mm after 18 to 24 hr by disc diffusion method
compound,measurement,setting,value
CO/N=C1\CN(c2nc3c(cc2F)c(=O)c(C(=O)O)cn3C2CC2)CC1CN.CS(=O)(=O)O (stereo not drawn) [GEMIFLOXACIN MESYLATE],inhibition zone (IZ),Proteus mirabilis [1],82.5%
same,Activity,Proteus mirabilis [2],11 µg/mL
same,Activity,Proteus mirabilis [3],12 µg/mL
same,Activity,Proteus mirabilis [4],10 µg/mL
same,inhibition zone (IZ),Klebsiella pneumoniae [5],84.2%
same,Activity,Klebsiella pneumoniae [6],12 µg/mL
same,Activity,Klebsiella pneumoniae [7],11 µg/mL
same,Activity,Shigella flexneri [8],7 µg/mL
same,Activity,Escherichia coli [9],10 µg/mL
same,Activity,Escherichia coli [10],9 µg/mL
same,Activity,Klebsiella pneumoniae [11],10 µg/mL
same,inhibition zone (IZ),Shigella flexneri [12],61.4%
same,Activity,Shigella flexneri [13],8 µg/mL
same,Activity,Shigella flexneri [14],13 µg/mL
same,inhibition zone (IZ),Escherichia coli [15],75.72%
same,inhibition zone (IZ),Staphylococcus aureus [16],69.8%
same,Activity,Escherichia coli [17],7 µg/mL
same,Activity,Staphylococcus aureus [18],14 µg/mL
same,Activity,Staphylococcus aureus [19],9 µg/mL
same,inhibition zone (IZ),Bacillus subtilis [20],46.3%
same,Activity,Bacillus subtilis [21],8 µg/mL
same,Activity,Bacillus subtilis [22],7 µg/mL
same,Activity,Bacillus subtilis [23],5 µg/mL
same,inhibition zone (IZ),Pseudomonas aeruginosa [24],75%
same,Activity,Pseudomonas aeruginosa [25],10 µg/mL
same,Activity,Pseudomonas aeruginosa [26],9 µg/mL
same,Activity,Pseudomonas aeruginosa [27],8 µg/mL
same,inhibition zone (IZ),Citrobacter [28],42.83%
same,Activity,Citrobacter [29],11 µg/mL
same,Activity,Citrobacter [30],9 µg/mL
same,Activity,Citrobacter [31],7 µg/mL
same,inhibition zone (IZ),Shigella sp. [32],75.5%
same,Activity,Shigella sp. [33],9 µg/mL
same,Activity,Shigella sp. [34],8 µg/mL
same,inhibition zone (IZ),[35],56.6%
same,Activity,[36],5 µg/mL
same,Activity,[37],8 µg/mL
same,Activity,[38],7 µg/mL
